In patent US11897901B1, “6-amino-8,9-di(4-methoxyphenyl)-2-oxo-3,9-dihydro-2H-[1,3]thiazolo[5′,4′:5,6]pyrano[2,3-b]pyridine-7-carbonitrile as anticancer compound” (KING FAISAL UNIVERSITY, priority 2023, dated 2024):

How the values were obtained:
[1] = tested on: human prostate cancer cells (PC3); assay: Assessment of cytotoxicity by SRB assay, PC3 cells; format: cell-based; conditions: 0.01 μM to 100 μM, 72 h
Description: (§1) The human prostate cancer cells (PC3) and human osteosarcoma cells (MG-63) were obtained from Nawah Scientific Inc. (Mokatam, Cairo, Egypt) and cultured in DMEM (Dulbecco's modified eagle's medium), Gibco, USA, supplemented with fetal bovine serum (FBS) at a concentration of 10% and 100 U/mL of penicillin and streptomycin (PS). The Cells were incubated at 37° C. in a humidified environment that contained 5% CO2.
(§2) Cells were seeded in 96-well plates as aliquots of 100 μL cell suspension and incubated in a complete media for 24 h. Afterward, cells were treated with 6-amino-8,9-di(4-methoxyphenyl)-2-oxo-3,9-dihydro-2H-[1,3]thiazolo[5′,4′:5,6]pyrano[2,3-b]pyridine-7-carbonitrile (2) at diverse concentrations ranging from 0.01 μM to 100 μM for 72 h. Then, cells were fixed at 4° C. for one hour with 150 μL of 10% trichloroacetic acid (TCA). After washing the cells five times with distilled water, 70 μL of sulforhodamine (SRB) solution (0.4% w/v) was added and incubated for 10 min at room temperature in a dark place. […] Then, 150 μL of Tris pH 10.5 (10 mM) was added, and the absorbance was measured at 540 nm using a BMG LABTECH®-FLUOstar Omega microplate reader (Ortenberg, Germany). Half maximal inhibitory concentration (IC50) values were calculated for each experiment using GraphPad Prism 6 software. […]
(§3) The inhibition was calculated using the following equation: Inhibition %=100−Average Viability

[2] = tested on: human osteosarcoma cells (MG-63); assay: Assessment of cytotoxicity by SRB assay, MG-63 cells; format: cell-based; conditions: 0.01 μM to 100 μM, 72 h
Description: as §1, §2, §3

**Q.** For COc1ccc(-c2c(C#N)c(N)nc3c2C(c2ccc(OC)cc2)c2sc(=O)[nH]c2O3)cc1 (stereo not drawn) [Compound 2, 6-amino-8,9-di(4-methoxyphenyl)-2-oxo-3,9-dihydro-2H-[1,3]thiazolo[5′,4′:5,6]pyrano[2,3-b]pyridine-7-carbonitrile], which “antiproliferative activities against cancer cells (PC3)” value [1] is on record?
**A.** excellent antiproliferative activities

**Q.** And the melting point?
**A.** 234 to 236 °C

**Q.** And the “antiproliferative activities against osteosarcoma (MG-63) cells” value [2]?
**A.** excellent antiproliferative activities
